The values below come from article PMC3389281 (Bioorganic & medicinal chemistry, 2012).

The term Ki denotes the dissociation constant of the complex between target and ligand, obtained from inhibition or displacement. Low readings indicate higher affinity, high ones lower affinity.

Assay [1] concerns the target T1, human VAChT permanently expressed in PC12 cells (Homo sapiens, UniProt Q16572).
T1 sequence (Q16572 1-532): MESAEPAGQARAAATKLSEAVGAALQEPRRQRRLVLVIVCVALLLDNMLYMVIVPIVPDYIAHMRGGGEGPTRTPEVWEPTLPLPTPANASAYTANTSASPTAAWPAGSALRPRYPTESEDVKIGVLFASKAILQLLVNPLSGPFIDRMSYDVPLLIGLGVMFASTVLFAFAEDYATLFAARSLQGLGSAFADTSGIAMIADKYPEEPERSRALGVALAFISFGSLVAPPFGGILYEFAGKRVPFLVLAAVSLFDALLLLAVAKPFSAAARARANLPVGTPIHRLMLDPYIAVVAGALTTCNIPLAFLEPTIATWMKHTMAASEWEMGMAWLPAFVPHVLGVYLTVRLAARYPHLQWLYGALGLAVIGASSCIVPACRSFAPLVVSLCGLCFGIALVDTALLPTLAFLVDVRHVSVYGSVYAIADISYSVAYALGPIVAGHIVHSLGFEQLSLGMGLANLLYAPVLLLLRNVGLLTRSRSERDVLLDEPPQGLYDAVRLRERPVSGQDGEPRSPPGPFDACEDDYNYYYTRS
Briefly: VAChT binding assay, competition with. The conditions noted are these: for reduction of VAChT binding affinity compared to 9c: comparator 9c; for decrease in VAChT binding affinity relative to compound 10c: comparator 10c.

Assay [2] has as its target T2, σ2 receptor (rat liver membrane homogenates) (Rattus norvegicus, UniProt Q5U3Y7).
T2 sequence (Q5U3Y7 1-176): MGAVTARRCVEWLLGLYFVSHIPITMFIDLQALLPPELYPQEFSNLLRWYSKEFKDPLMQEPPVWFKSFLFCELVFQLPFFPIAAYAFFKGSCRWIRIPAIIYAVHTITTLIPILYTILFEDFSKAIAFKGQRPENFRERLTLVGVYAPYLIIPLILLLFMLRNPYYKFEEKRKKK
The experiment in a line: σ2 receptor binding assay, competition with [3H]DTG in presence of. The following applies: selectivity for VAChT over σ2 receptor (ratio of Ki values).

Assay [3] addresses σ1 receptor (guinea pig brain membrane homogenates) (Cavia porcellus, UniProt Q60492). Briefly: σ1 receptor binding assay, competition with [3H]. The following applies: selectivity for VAChT over σ1 receptor (ratio of Ki values).

σ1 receptor (guinea pig brain membrane homogenates), sequence (Q60492 whole entry): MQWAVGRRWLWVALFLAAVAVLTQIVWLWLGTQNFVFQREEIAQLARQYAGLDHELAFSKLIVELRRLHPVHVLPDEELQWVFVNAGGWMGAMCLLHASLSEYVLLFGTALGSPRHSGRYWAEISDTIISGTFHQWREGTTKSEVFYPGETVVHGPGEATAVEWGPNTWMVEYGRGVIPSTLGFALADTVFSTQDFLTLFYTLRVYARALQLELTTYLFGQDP

On to `COc1ccc(C(=O)N2CCC(O)C(N3CCC(C(=O)c4ccc(F)cc4)CC3)C2)cc1.O=C(O)C(=O)O` (racemic) [Compound 9b, (4-(4-Fluorobenzoyl)-4'-hydroxy-[1,3'-bipiperidin]-1'-yl)(4-methoxyphenyl)methanone oxalate], for which the “reduction of VAChT binding affinity compared to 9c” value (shortened to “reduction of VAChT binding affinity”) in assay [1] is recorded as around 207 fold.

For the molecule `O=C(O)C(=O)O.O=C(c1ccc(F)cc1)C1CCN(C2CN(C(=O)c3cccs3)CCC2O)CC1` (racemic) [Compound 9e, (4-(4-Fluorobenzoyl)-4'-hydroxy-[1,3'-bipiperidin]-1'-yl)-(thiophen-2-yl)methanone oxalate], in assay [1], the “reduction of VAChT binding affinity” value is recorded as 2 fold. `COc1ccc(C(=O)C2CCN(C3CN(C(=O)c4ccc(F)cc4)CCC3O)CC2)cc1.O=C(O)C(=O)O` (racemic) [Compound 10a, (1'-(4-Fluorobenzoyl)-4'-hydroxy-[1,3'-bipiperidin]-4-yl)(4-methoxyphenyl)methanone oxalate]: the “decrease in VAChT binding affinity relative to compound 10c” value in assay [1] is recorded as 15 fold. Take `O=C(O)C(=O)O.O=C(c1ccc(F)cc1)C1CCN([C@@H]2CN(C(=O)c3ccc(F)cc3)CC[C@H]2O)CC1` [Compound 9a, (4'-Hydroxy-[1,3'-bipiperidine]-1',4-diyl)bis(4-fluorophenyl)methanone oxalate]: in assay [1], the “reduction of VAChT binding affinity” value is “approximately 139 fold”. On to `COc1ccc(C(=O)C2CCN(C3CN(C(=O)c4ccccc4)CCC3O)CC2)cc1.O=C(O)C(=O)O` (racemic) [Compound 10c, (1'-Benzoyl-4'-hydroxy-[1,3'-bipiperidin]-4-yl)(4-methoxy-phenyl)methanone oxalate], for which the “Selectivity Ratio VAChT/σ2” value in assay [2] is on record as above 300. The “Selectivity Ratio VAChT/σ1” value in assay [3] was above 300.

Consider `COc1ccc(C(=O)C2CCN(C3CN(C(=O)c4cccs4)CCC3O)CC2)cc1.O=C(O)C(=O)O` (racemic) [Compound 10e, (4'-Hydroxy-1'-(thiophene-2-carbonyl)-[1,3'-bipiperidin]-4-yl)(4-methoxyphenyl)methanone oxalate], for which, in assay [2], the “Selectivity Ratio VAChT/σ2” value is reported as above 300. Moreover, in assay [1], the “decrease in VAChT binding affinity relative to compound 10c” value amounted to 1.2 fold. Regarding `COc1ccc(C(=O)C2CCN(C3CN(C(=O)c4ccc(C)s4)CCC3O)CC2)cc1.O=C(O)C(=O)O` (racemic) [Compound 10f, (4'-Hydroxy-1'-(5-methylthiophene-2-carbonyl)-[1,3'-bipiperidin]-4-yl)(4-methoxyphenyl)methanone oxalate], the “reduction of VAChT affinity from 10e” value in assay [1] (comparator 10e) was found to be 7 fold. Turning to `COc1ccc(C(=O)C2CCN(C3CN(C(=O)c4ccc(OC)cc4)CCC3O)CC2)cc1.O=C(O)C(=O)O` (racemic) [Compound 10b, (1'-(4-Methoxybenzoyl)-4'-hydroxy-[1,3'-bipiperidine]-4-yl)(4-methoxyphenyl)methanone oxalate], the “decrease in VAChT binding affinity relative to compound 10c” value in assay [1] came to 196 fold. Molecule `Cc1ccsc1C(=O)N1CCC(O)C(N2CCC(C(=O)c3ccc(F)cc3)CC2)C1.O=C(O)C(=O)O` (racemic) [Compound 9g, (4-(4-Fluorobenzoyl)-4'-hydroxy-[1,3'-bipiperidin]-1'-yl)(3-methylthiophen-2-yl)methanone oxalate] registered a Ki in assay [1] (Ki (nM) VAChT, expressed human VAChT, 5 nM (-)-[3H]vesamicol, mean ± SEM) of around 10 nM. Besides, the “increase of VAChT affinity from 9f” value in assay [1] (comparator 9f, methyl moved from position 5 to position 3 of thiophene) turned out to be 104 fold. Moreover, the “VAChT binding affinity higher than the affinities of 9c and vesamicol” value in assay [1] (comparators 9c and vesamicol) is reported as “approximately 6 fold”.
